Data as given in patent US11814367B2, “Inhibitors of glycogen synthase 1 (GYS1) and methods of use thereof” (Maze Therapeutics, Inc., priority 2021, dated 2023).

Assays:
[1] = target: hGYS2 enzyme (recombinant hGYS2/GN1 protein) (Homo sapiens (Human), UniProt P54840); assay: GYS2 coupled enzyme assay (PK/LDH); format: biochemical; details: geometric mean of at least 2 assay runs on separate days, read-out: Avg_IC50
In short: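 IC50 came from Hill fits of duplicate percent inhibition, based on control-normalized slopes of 340 nm NADH decline read each minute for 10 min. The reaction held recombinant hGYS2/GN1 (200 nM) with glycogen, UDP-glucose, G6P and PEP, plus PK/LDH coupling at pH 7.5 and 2.5% DMSO.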

[2] = tested on: hGYS1 enzyme / glycogen synthesis in HeLa cells; assay: GYS1 cell based assay (glycogen synthesis, Glucose-glo); set-up: species or system human; details: 24 h incubation, 20 mM glucose, geometric mean of at least 2 runs
In short: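 HeLa cells starved 24 h in medium containing only 1× Glutamax were plated onto compound in medium with 20 mM glucose (1% DMSO final) for 24 h, 37 °C, 5% CO2. Acid lysates were Tris-quenched, glucoamylase-digested (pH 5.3, 1 h, 37 °C) and read by Glucose-glo luminescence. IC50 came from Hill fits, as geometric mean of ≥2 runs.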

[3] = target: hGYS1 enzyme (recombinant hGYS1/GN1 protein) (Homo sapiens (Human), UniProt P13807); assay: GYS1 coupled enzyme assay (PK/LDH); format: biochemical; details: hGYS1/GN1 50 nM, UDP-Glucose 0.8 mM, G6P 1 mM; geometric mean of at least 2 runs
hGYS1 enzyme (recombinant hGYS1/GN1 protein), sequence (P13807 whole entry): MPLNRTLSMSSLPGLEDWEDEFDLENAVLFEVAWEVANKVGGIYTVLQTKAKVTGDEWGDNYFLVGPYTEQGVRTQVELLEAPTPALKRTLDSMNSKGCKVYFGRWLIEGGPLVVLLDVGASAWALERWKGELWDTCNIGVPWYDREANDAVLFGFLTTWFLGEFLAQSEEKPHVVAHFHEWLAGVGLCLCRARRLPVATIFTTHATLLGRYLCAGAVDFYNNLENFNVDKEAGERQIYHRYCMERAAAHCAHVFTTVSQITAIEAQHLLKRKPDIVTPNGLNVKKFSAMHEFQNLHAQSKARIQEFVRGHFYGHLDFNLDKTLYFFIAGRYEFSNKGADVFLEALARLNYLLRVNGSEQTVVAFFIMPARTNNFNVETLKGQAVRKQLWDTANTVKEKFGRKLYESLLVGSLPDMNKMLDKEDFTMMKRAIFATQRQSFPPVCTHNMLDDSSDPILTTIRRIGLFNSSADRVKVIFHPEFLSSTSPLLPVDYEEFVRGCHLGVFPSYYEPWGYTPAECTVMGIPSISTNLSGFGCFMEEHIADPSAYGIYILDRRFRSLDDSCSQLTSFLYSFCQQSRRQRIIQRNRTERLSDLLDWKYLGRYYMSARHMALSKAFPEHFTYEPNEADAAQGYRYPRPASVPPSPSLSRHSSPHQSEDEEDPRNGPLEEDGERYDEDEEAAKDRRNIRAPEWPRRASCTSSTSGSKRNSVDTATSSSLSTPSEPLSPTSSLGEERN
hGYS1 enzyme (recombinant hGYS1/GN1 protein), sequence (P46976 whole entry partner): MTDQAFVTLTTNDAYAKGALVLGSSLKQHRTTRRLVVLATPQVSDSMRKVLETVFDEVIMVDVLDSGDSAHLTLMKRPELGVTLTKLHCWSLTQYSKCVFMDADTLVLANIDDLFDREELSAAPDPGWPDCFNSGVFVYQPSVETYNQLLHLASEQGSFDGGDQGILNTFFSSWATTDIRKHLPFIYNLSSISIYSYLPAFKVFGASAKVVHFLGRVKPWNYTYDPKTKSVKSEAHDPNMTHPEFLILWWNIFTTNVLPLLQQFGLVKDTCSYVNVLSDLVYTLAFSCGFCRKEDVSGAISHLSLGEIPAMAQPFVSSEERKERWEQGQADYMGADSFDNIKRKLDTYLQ

hGYS2 enzyme (recombinant hGYS2/GN1 protein), sequence (P54840 whole entry): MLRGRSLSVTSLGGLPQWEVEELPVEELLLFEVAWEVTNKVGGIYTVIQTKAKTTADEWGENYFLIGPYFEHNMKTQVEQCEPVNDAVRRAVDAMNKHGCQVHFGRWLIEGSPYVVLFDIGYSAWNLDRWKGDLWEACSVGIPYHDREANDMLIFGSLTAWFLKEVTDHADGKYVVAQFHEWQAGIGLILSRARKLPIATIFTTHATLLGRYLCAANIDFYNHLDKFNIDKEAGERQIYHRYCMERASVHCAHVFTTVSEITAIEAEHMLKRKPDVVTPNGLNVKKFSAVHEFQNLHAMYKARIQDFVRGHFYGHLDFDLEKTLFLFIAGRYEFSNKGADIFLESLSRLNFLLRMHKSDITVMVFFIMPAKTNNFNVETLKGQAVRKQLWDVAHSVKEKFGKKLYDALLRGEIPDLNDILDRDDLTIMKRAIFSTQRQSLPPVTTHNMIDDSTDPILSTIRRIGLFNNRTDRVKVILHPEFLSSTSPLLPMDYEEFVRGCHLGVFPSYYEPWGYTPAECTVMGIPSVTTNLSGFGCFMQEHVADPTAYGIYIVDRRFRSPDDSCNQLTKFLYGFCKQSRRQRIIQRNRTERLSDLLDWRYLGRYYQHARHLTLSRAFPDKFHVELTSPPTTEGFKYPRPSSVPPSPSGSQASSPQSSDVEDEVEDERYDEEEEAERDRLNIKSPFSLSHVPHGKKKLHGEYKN
hGYS2 enzyme (recombinant hGYS2/GN1 protein), sequence (P46976 whole entry partner): as the sequence (P46976 whole entry partner) above

| Structure (SMILES) | IC50 [1] [nM] | IC50 ([2]; Homo sapiens, HeLa, 24 h) [nM] | IC50 [3] [nM] | IC50 [2] [nM] |
| --- | --- | --- | --- | --- |
| Cc1nc2ccccc2n1CC(=O)N1C[C@H](F)C[C@H]1C(=O)N[C@@H](c1ccccc1)c1ccc(C2(C)CC2)c(F)n1 [Compound 593, (2S,4R)-4-fluoro-N-[(S)-[6-fluoro-5-(1-methylcyclopropyl)pyridin-2-yl](phenyl)methyl]-1-[2-(2-methyl-1H-1,3-benzodiazol-1-yl)acetyl]pyrrolidine-2-carboxamide] | > 100000 | 280 | 19 | – |
| O=C(N[C@@H](c1ccccc1)c1ccc(C2CC2)c(F)n1)[C@@H]1C[C@@H](F)CN1C(=O)Cc1[nH]nnc1C(F)(F)F [Compound 307, (2S,4R)-N-[(S)-(5-cyclopropyl-6-fluoropyridin-2-yl)(phenyl)methyl]-4-fluoro-1-{2-[4-(trifluoromethyl)-1H-1,2,3-triazol-5-yl]acetyl}pyrrolidine-2-carboxamide] | > 100000 | 500 | 10 | – |
| CN1CCN(C(=O)OCC(=O)N2C[C@H](F)C[C@H]2C(=O)N[C@@H](c2ccccc2)c2ccc(C3(C)CC3)c(F)c2)CC1 [Compound 583, 2-[(2S,4R)-4-fluoro-2-{[(S)-[3-fluoro-4-(1-methylcyclopropyl)phenyl](phenyl)methyl]carbamoyl}pyrrolidin-1-yl]-2-oxoethyl 4-methylpiperazine-1-carboxylate] | > 100000 | 1640 | 105 | – |
| Cc1cc(C(NC(=O)[C@@H]2C[C@@H](F)CN2C(=O)Cc2c(C)nn(C)c2C)c2cccnc2N)ccc1C(C)C (single isomer, unassigned) [Compound 625, (2S,4R)-N-[(R) or (S)-(2-aminopyridin-3-yl)[3-methyl-4-(propan-2-yl)phenyl]methyl]-4-fluoro-1-[2-(1,3,5-trimethyl-1H-pyrazol-4-yl)acetyl]pyrrolidine-2-carboxamide] | > 100000 | 1140 | 139 | – |
| CC(C(=O)N1C[C@H](F)C[C@H]1C(=O)N[C@@H](c1ccccc1)c1ccc(C2CC2)c(F)c1)n1cnc2ccccc21 (single isomer, unassigned) [Compound 809, (2S,4R)-1-[(2S) or (2R)-2-(1H-1,3-benzodiazol-1-yl)propanoyl]-N-[(S)-(4-cyclopropyl-3-fluorophenyl)(phenyl)methyl]-4-fluoropyrrolidine-2-carboxamide] | > 100000 | – | 7 | 190 |
| CC(C)c1ccc([C@@H](NC(=O)[C@@H]2C[C@@H](F)CN2C(=O)COc2cccnn2)c2ccccc2)cc1 [Compound 21, (2S,4R)-4-fluoro-N-[(S)-phenyl[4-(propan-2-yl)phenyl]methyl]-1-[2-(pyridazin-3-yloxy)acetyl]pyrrolidine-2-carboxamide] | > 100000 | 470 | 27 | – |
| CC(C)c1ccc([C@@H](NC(=O)[C@@H]2C[C@@H](F)CN2C(=O)CN(C)C(=O)N(C)C)c2ccccc2)cc1F [Compound 362, (2S,4R)-1-{2-[(dimethylcarbamoyl) (methyl)amino]acetyl}-4-fluoro-N-[(S)-[3-fluoro-4-(propan-2-yl)phenyl](phenyl)methyl] pyrrolidine-2-carboxamide] | > 100000 | 1150 | 90 | – |
| CC(C)c1ccc([C@@H](NC(=O)[C@@H]2C[C@@H](F)CN2C(=O)Cn2nccn2)c2ccccc2)cc1 [Compound 17, (2S,4R)-4-fluoro-N-[(S)-phenyl[4-(propan-2-yl)phenyl]methyl]-1-[2-(2H-1,2,3-triazol-2-yl)acetyl]pyrrolidine-2-carboxamide] | > 100000 | 330 | 34 | – |
| O=C(N[C@@H](c1ccccc1)c1ccc(C2CC(F)(F)C2)cn1)[C@@H]1C[C@@H](F)CN1C(=O)CNC(=O)N1CCC1 [Compound 533, (2S,4R)-1-{2-[(azetidine-1-carbonyl)amino]acetyl}-N-[(S)-[5-(3,3-difluorocyclobutyl)pyridin-2-yl](phenyl)methyl]-4-fluoropyrrolidine-2-carboxamide] | > 100000 | 1210 | 43 | – |
| CCn1c(=O)c(C)cn(CC(=O)N2C[C@H](F)C[C@H]2C(=O)N[C@@H](c2ccccc2)c2ccc(C3CC(F)(F)C3)c(F)n2)c1=O [Compound 501, (2S,4R)—N—((S)-(5-(3,3-difluorocyclobutyl)-6-fluoropyridin-2-yl)(phenyl)methyl)-1-(2-(3-ethyl-5-methyl-2,4-dioxo-3,4-dihydropyrimidin-1(2H)-yl)acetyl)-4-fluoropyrrolidine-2-carboxamide] | > 100000 | 50 | 3 | – |
| CC(C)c1ccc([C@@H](NC(=O)[C@@H]2C[C@@H](F)CN2C(=O)Cn2ncc(N(C)C)n2)c2ccccc2)nc1 [Compound 259, (2S,4R)-1-{2-[4-(dimethylamino)-2H-1,2,3-triazol-2-yl]acety}-4-fluoro-N-[(S)-phenyl[5-(propan-2-yl)pyridin-2-yl]methyl]pyrrolidine-2-carboxamide] | > 100000 | 280 | 15 | – |
| CC(C)c1ccc([C@@H](NC(=O)[C@@H]2C[C@@H](F)CN2C(=O)Cc2[nH]nnc2N2CCNCC2)c2ccccc2)cc1F [Compound 369, (2S,4R)-4-fluoro-N-[(S)-[3-fluoro-4-(propan-2-yl)phenyl](phenyl)methyl]-1-{2-[4-(piperazin-1-yl)-1H-1,2,3-triazol-5-yl]acetyl}pyrrolidine-2-carboxamide] | > 100000 | > 30000 | 537 | – |
| CC(C)(C)OC(=O)NCc1nnc(CC(=O)N2C[C@H](F)C[C@H]2C(=O)N[C@@H](c2ccccc2)c2ccc(C3CC3)c(F)c2)o1 [Compound 485, tert-butyl N-[(5-{2-[(2S,4R)-2-{[(S)-(4-cyclopropyl-3-fluorophenyl)(phenyl)methyl]carbamoyl}-4-fluoropyrrolidin-1-yl]-2-oxoethyl}-1,3,4-oxadiazol-2-yl)methyl]carbamate] | > 100000 | 3720 | 210 | – |
| O=C(N[C@@H](c1ccccc1)c1ccc(C2CC2)c(F)n1)[C@@H]1C[C@@H](F)CN1C(=O)Cn1nnnc1C(F)F [Compound 293, (2S,4R)-N-((S)-(5-cyclopropl-6-fluoropyridin-2-yl)(phenyl)methyl)-1-(2-(5-(difluoromethyl)-1H-tetrazol-1-yl)acetyl)-4-fluoropyrrolidine-2-carboxamide] | > 100000 | 660 | 38 | – |
| Cc1cnnn1CC(=O)N1C[C@H](F)C[C@H]1C(=O)N[C@@H](c1ccccc1)c1ccc(C(C)C)c(F)c1 [Compound 374, (2S,4R)-4-fluoro-N-[(S)-[3-fluoro-4-(propan-2-yl)phenyl](phenyl)methyl]-1-[2-(5-methyl-1H-1,2,3-triazol-1-yl)acetyl]pyrrolidine-2-carboxamide] | > 100000 | 360 | 22 | – |
| O=C(N[C@@H](c1ccccc1)c1ccc(C2CC2)c(F)c1)[C@@H]1C[C@@H](F)CN1C(=O)Cc1cnc2ccccn12 [Compound 479, (2S,4R)-N-[(S)-(4-cyclopropyl-3-fluorophenyl)(phenyl)methyl]-4-fluoro-1-(2-{imidazo[1,2-a]pyridin-3-yl}acetyl)pyrrolidine-2-carboxamide] | > 100000 | 1430 | 55 | – |
| Cc1nn(CC(=O)N2C[C@H](F)C[C@H]2C(=O)N[C@@H](c2ccccc2)c2ccc(C3CC3)c(F)n2)c(=O)o1 [Compound 316, (2S,4R)-N-[(S)-(5-cyclopropyl-6-fluoropyridin-2-yl)(phenyl)methyl]-4-fluoro-1-[2-(5-methyl-2-oxo-2,3-dihydro-1,3,4-oxadiazol-3-yl)acetyl]pyrrolidine-2-carboxamide] | > 100000 | 930 | 37 | – |
| CN1CCN(CC(=O)N2C[C@H](F)C[C@H]2C(=O)N[C@@H](c2ccccc2)c2ccc(C3CC3)c(F)c2)C1=O [Compound 425, (2S,4R)-N-[(S)-(4-cyclopropyl-3-fluorophenyl)(phenyl)methyl]-4-fluoro-1-[2-(3-methyl-2-oxoimidazolidin-1-yl)acetyl]pyrrolidine-2-carboxamide] | > 100000 | 3590 | 224 | – |
| O=C(N[C@@H](c1ccccc1)c1ccc(C2CC2)c(F)n1)[C@@H]1C[C@@H](F)CN1C(=O)Cn1ncc(N2CC(F)(F)C2)n1 [Compound 318, (2S,4R)-N-[(S)-(5-cyclopropyl-6-fluoropyridin-2-yl)(phenyl)methyl]-1-{2-[4-(3,3-difluoroazetidin-1-yl)-2H-1,2,3-triazol-2-yl]acetyl}-4-fluoropyrrolidine-2-carboxamide] | > 100000 | 580 | 20 | – |
| CC(C)c1ccc([C@@H](NC(=O)[C@@H]2C[C@@H](F)CN2C(=O)Cn2nncc2CN(C)C)c2ccccc2)cc1 [Compound 241, (2S,4R)-1-(2-{5-[(dimethylamino)methyl]-1H-1,2,3-triazol-1-yl}acetyl)-4-fluoro-N-[(S)-phenyl[4-(propan-2-yl)phenyl]methyl]pyrrolidine-2-carboxamide] | > 100000 | 1140 | 82 | – |
